Several values for one entry are separate records, joined by “and”; a condition that tells them apart may be missing. Equal entries are not always repeated. Where two headings read alike, the source gives them in different places.
System: DosRST regulon
Assay type: cell-based
Conditions: for Counts per million (CPM) WT_HC103A: replicates 1, 2

## O=C(Nc1cccc(O)c1)c1cccc(NC(=O)c2cccs2)c1 [HC103A, N-[3-[(3 hydroxyphenyl)carbamoyl]phenyl]thiophene-2-carboxamide]
Gene MT2019 (Rv1967)
  WT DMSO/WT HC103A fold change: 0.1846
  log2 Fold change: −2.437
Gene MT2019 Rv1967
  Counts per million (CPM) WT_HC103A: 58.15 CPM and 26.3 CPM
Gene MT2020 Rv1968
  WT DMSO/WT HC103A fold change: 0.199
  log2 Fold change: −2.329
  Counts per million (CPM) WT_HC103A: 72.37 CPM and 31.88 CPM
Gene MT2021 (Rv1969)
  WT DMSO/WT HC103A fold change: 0.2997
  log2 Fold change: −1.738
Gene MT2021 Rv1969
  Counts per million (CPM) WT_HC103A: 29.34 CPM and 13.9 CPM
Gene MT2022 (Rv1970 lprM)
  WT DMSO/WT HC103A fold change: 0.2084
  log2 Fold change: −2.263
Gene MT2022 Rv1970 lprM
  Counts per million (CPM) WT_HC103A: 41.74 CPM and 24.09 CPM
Gene MT2023 (Rv1971)
  WT DMSO/WT HC103A fold change: 0.2079
  log2 Fold change: −2.266
Gene MT2023 Rv1971
  Counts per million (CPM) WT_HC103A: 53.39 CPM and 33.31 CPM
Gene MT2024 (Rv1972)
  WT DMSO/WT HC103A fold change: 0.3791
  log2 Fold change: −1.399
Gene MT2024 Rv1972
  Counts per million (CPM) WT_HC103A: 12.78 CPM and 9.286 CPM
Gene MT2048 Rv1992c ctpG
  WT DMSO/WT HC103A fold change: 0.2903
  log2 Fold change: −1.784
  Counts per million (CPM) WT_HC103A: 531.4 CPM and 326.8 CPM
Gene MT2052 (Rv1996)
  WT DMSO/WT HC103A fold change: 0.003741
  log2 Fold change: −8.063
Gene MT2052 Rv1996
  Counts per million (CPM) WT_HC103A: 107.1 CPM and 83.44 CPM
Gene MT2053 (Rv1997 ctpF)
  WT DMSO/WT HC103A fold change: 0.0183
  log2 Fold change: −5.772
Gene MT2053 Rv1997 ctpF
  Counts per million (CPM) WT_HC103A: 57.85 CPM and 33.12 CPM
Gene MT2059 (Rv2003c)
  WT DMSO/WT HC103A fold change: 0.1063
  log2 Fold change: −3.234
Gene MT2059 Rv2003c
  Counts per million (CPM) WT_HC103A: 93.54 CPM and 62.92 CPM
Gene MT2060 Rv2004c
  WT DMSO/WT HC103A fold change: 0.05469
  log2 Fold change: −3.95
  Counts per million (CPM) WT_HC103A: 219.7 CPM and 144.4 CPM
Gene MT2061 Rv2005c
  WT DMSO/WT HC103A fold change: 0.04809
  log2 Fold change: −4.378
  Counts per million (CPM) WT_HC103A: 138.4 CPM and 91.76 CPM
Gene MT2062 Rv2006 otsB
  WT DMSO/WT HC103A fold change: 0.1408
  log2 Fold change: −2.828
  Counts per million (CPM) WT_HC103A: 107.5 CPM and 97.41 CPM
Gene MT2063 Rv2007c fdxA
  WT DMSO/WT HC103A fold change: 0.08678
  log2 Fold change: −4.765
  Counts per million (CPM) WT_HC103A: 527.8 CPM and 132.3 CPM
Gene MT2086 (Rv2027c)
  WT DMSO/WT HC103A fold change: 0.2521
  log2 Fold change: −1.988
Gene MT2086 Rv2027c
  Counts per million (CPM) WT_HC103A: 73.2 CPM and 62.79 CPM
Gene MT2087 Rv2028c
  WT DMSO/WT HC103A fold change: 0.02878
  log2 Fold change: −5.119
  Counts per million (CPM) WT_HC103A: 35.92 CPM and 8.702 CPM
Gene MT2088
  WT DMSO/WT HC103A fold change: 0.01366
  log2 Fold change: −6.194
  Counts per million (CPM) WT_HC103A: 84.09 CPM and 21.3 CPM
Gene MT2089 Rv2030c
  WT DMSO/WT HC103A fold change: 0.01775
  log2 Fold change: −5.816
  Counts per million (CPM) WT_HC103A: 451.1 CPM and 80.39 CPM
Gene MT2090
  WT DMSO/WT HC103A fold change: 0.0164
  log2 Fold change: −5.93
Gene MT2091 Rv2032
  WT DMSO/WT HC103A fold change: 0.01154
  log2 Fold change: −6.438
Gene MT2445.1
  WT DMSO/WT HC103A fold change: 0.4105
  log2 Fold change: −1.285
Gene MT2556 Rv2483c
  WT DMSO/WT HC103A fold change: 0.3592
  log2 Fold change: −1.477
Gene MT2557 Rv2484c
  WT DMSO/WT HC103A fold change: 0.3196
  log2 Fold change: −1.646
Gene MT2574 Rv2499c
  WT DMSO/WT HC103A fold change: 0.3086
  log2 Fold change: −1.696
Gene MT2576
  WT DMSO/WT HC103A fold change: 0.2991
  log2 Fold change: −1.741
Gene MT2577 Rv2502c accD1
  WT DMSO/WT HC103A fold change: 0.3334
  log2 Fold change: −1.585
Gene MT2578 Rv2503c scoB
  WT DMSO/WT HC103A fold change: 0.2841
  log2 Fold change: −1.815
Gene MT2579 Rv2504c scoA
  WT DMSO/WT HC103A fold change: 0.281
  log2 Fold change: −1.831
Gene MT2698 Rv2623
  WT DMSO/WT HC103A fold change: 0.006998
  log2 Fold change: −7.159
Gene MT2699 Rv2624c
  WT DMSO/WT HC103A fold change: 0.01316
  log2 Fold change: −6.247
Gene MT2700 Rv2625c
  WT DMSO/WT HC103A fold change: 0.007921
  log2 Fold change: −6.98
Gene MT2701 Rv2626c
  WT DMSO/WT HC103A fold change: 0.00844
  log2 Fold change: −6.888
Gene MT2702 Rv2627c
  WT DMSO/WT HC103A fold change: 0.005338
  log2 Fold change: −7.55
Gene MT2703 Rv2678
  WT DMSO/WT HC103A fold change: 0.02894
  log2 Fold change: −5.111
Gene MT2704 Rv2629
  WT DMSO/WT HC103A fold change: 0.05675
  log2 Fold change: −4.139
Gene MT2705 Rv2630
  WT DMSO/WT HC103A fold change: 0.07365
  log2 Fold change: 3.763
Gene MT2707 Rv2631
  WT DMSO/WT HC103A fold change: 0.07456
  log2 Fold change: −3.745
Gene MT3171 Rv3086 adhD
  WT DMSO/WT HC103A fold change: 0.4045
  log2 Fold change: −1.306
Gene MT3210
  WT DMSO/WT HC103A fold change: 0.0164
  log2 Fold change: −5.93
Gene MT3212 Rv3127
  WT DMSO/WT HC103A fold change: 0.01248
  log2 Fold change: −6.324
Gene MT3216 Rv3130c
  WT DMSO/WT HC103A fold change: 0.005779
  log2 Fold change: −7.435
Gene MT3217 Rv3131
  WT DMSO/WT HC103A fold change: 0.004749
  log2 Fold change: −7.718
Gene MT3218 Rv3132c
  WT DMSO/WT HC103A fold change: 0.04611
  log2 Fold change: −4.439
Gene MT3219 Rv3133c
  WT DMSO/WT HC103A fold change: 0.0294
  log2 Fold change: −5.088
Gene MT3220 Rv3134c
  WT DMSO/WT HC103A fold change: 0.02054
  log2 Fold change: −5.606
Gene MT3427
  WT DMSO/WT HC103A fold change: 0.4435
  log2 Fold change: −1.173
Gene MT3443 Rv3340 metC
  WT DMSO/WT HC103A fold change: 0.3114
  log2 Fold change: −1.683
Gene MT3444 Rv3341 metA
  WT DMSO/WT HC103A fold change: 0.2535
  log2 Fold change: −1.924
Gene MT3608 Rv3504 fadE26
  WT DMSO/WT HC103A fold change: 0.3558
  log2 Fold change: −1.491
Gene MT3634 Rv3531c
  WT DMSO/WT HC103A fold change: 0.2978
  log2 Fold change: −1.748
Gene MT3656 Rv3552
  WT DMSO/WT HC103A fold change: 0.3116
  log2 Fold change: −1.582
Gene MT3716 Rv3614c
  WT DMSO/WT HC103A fold change: 0.3057
  log2 Fold change: −1.71
Gene MT3717 Rv3615c
  WT DMSO/WT HC103A fold change: 0.3122
  log2 Fold change: −1.679
Gene MT3718 Rv3616c
  WT DMSO/WT HC103A fold change: 0.3166
  log2 Fold change: −1.659
